The values below come from patent publication US9726659B2, “CMPF as a biomarker for diabetes and associated methods” (The Governing Council of the University of Toronto, priority 2012, dated 2017).

The structures appear in SMILES notation.

The test system of one data set is MIN6 cells. The experiment in a line: Glucose- and KCl-stimulated insulin secretion in MIN6 cells. The data set is classed as cell-based, murine. The following applies: 200 uM. Here is the method: (§1) LG=2.8 mM glucose, HG=16.7 mM glucose, KCl=16.7 mM glucose+30 mM KCl. *p<0.05.
(§2) Since beta cell failure is a major underlying cause of both GDM and T2D, the effect of increased CMPF on beta cell function was investigated both in vitro and in vivo. Using physiological concentrations of CMPF (20 uM and 200 uM, as observed in our NGT-pregnant and GDM-pregnant samples respectively (FIG. 2)), as well as a vehicle control (EtOH), its effect was studied on glucose-stimulated insulin secretion (GSIS) and insulin secretion in response to direct depolarization using the secretagogue KCl in an immortalized murine beta cell line (MIN6), as well as primary isolated human and murine islets (FIG. 3A). […] Therefore, high physiologically relevant levels of CMPF impair GSIS.

The next data set relates to primary human islets. As to the kind of experiment: Glucose-stimulated insulin secretion in primary human islets. The data set is classed as cell-based. The conditions noted are these: 200 uM, 24 hour pre-incubation, vs vehicle and 20 uM. Here is the method: as §1, §2
Another data set concerns human islets. As to the kind of experiment: Total insulin content in human islets. The data set is classed as cell-based. The following applies: 200 uM, 24 hrs, vs vehicle. On the procedure: In the absence of apoptosis and necrosis, CMPF must be impairing GSIS by causing beta cell dysfunction. First, the effect of CMPF treatment on insulin biosynthesis was investigated to determine if insulin is available to be released upon stimulation. MIN6, murine and human islets were treated with vehicle control, 20 uM and 200 uM CMPF for 4 hrs (MIN6) or 24 hrs (islets), and total insulin content measured. […] Lower total insulin content may be due to either defective insulin processing from proinsulin to mature insulin, or insufficient insulin transcription. To determine the mechanism through which CMPF is reducing total insulin content, quantitative PCR (qPCR) was performed on RNA that was isolated from murine islets treated with either vehicle control or 200 uM CMPF for 24 hrs.

A short description of data set [1]: Plasma CMPF after IP injection. The data set is classed as in vivo, CD1 mice. The following applies: for up to 2 hours but not at 6 hours post-injection, n=4/group. Here is the method:
CD1 mice were injected IP with either vehicle control (black) or CMPF (white). A) Plasma samples were taken at 10, 30, 60, 120 and 360 minutes post-IP injection and assayed for CMPF. […] Over the 3-day course of IP injections, mice were monitored for body weight (B), random-fed blood glucose (C) and plasma insulin (C). There was no difference in any of these parameters. Following 3 consecutive days of CMPF injections, mice were fasted for 14 hrs and OGTTs were performed.

Data set [2] deals with islets from injected mice. The experiment in a line: Islets isolated from IP injected mice after the OGTT (ex vivo). In kind it is in vivo. On the procedure: CD1 mice were injected IP with either vehicle control (black) or CMPF (white). Over the 7-day course of IP injections, mice were monitored for body weight (A), and random-fed blood glucose (B) and plasma insulin (C). […] The lower body weights on day 8 are following a 14-hour fast, immediately prior to the OGTTs. Following 7 consecutive days of CMPF injections, mice were fasted for 14 hrs and OGTTs were performed. […] (n=8 per group, p<0.05).
To assess the effect of in vivo administration of CMPF directly on the beta cells, the islets were isolated from the 3-day and 7-day IP injected mice immediately following the OGTT. […] The reduced total insulin content corresponded to lower insulin mRNA levels (FIG. 7D, 3-day injected used as representative), consistent with the in vitro studies described herein.

The subject of the next data set is mice. The experiment in a line: Hyperinsulinemic euglycemic clamps after 7 days of IP injections. The data set is classed as in vivo. The following applies: 7 days IP. On the procedure: A) Schematic illustrating injection and surgical timeline. B) Glucose infusion rate (C) glucose appearance and (D) disappearance rates and (E) glycolytic rate in 7 day CMPF-injected mice compared to vehicle controls (N=4/group). […] Values mean±SEM.
Hyperinsulinemic euglycemic clamps were performed as previously described (Liu et al., 2012) following 7 days of IP injections with either CMPF or vehicle. Internal and external cannulation was performed on day 3 of the injection protocol.
As shown in Example 1, elevated plasma CMPF results in glucose intolerance and impaired insulin secretion. […] To more thoroughly examine integrated glucose homeostasis, hyperinsulinemic euglycemic clamps were performed.

In a further data set the test system is dispersed mouse islets. As to the kind of experiment: Mitochondrial membrane potential (rhodamine 123). The data set is classed as cell-based. The conditions noted are these: 200 μM. On the procedure:
Dispersed isolated islets were treated with either vehicle control or 200 μM CMPF for 24 hours prior to loading with rhodamine 123 (25 ug/ml, 10 min) in 2.8 mM glucose imaging buffer. 5 mM NaN3 was added to fully depolarize the MMP (Diao et al., 2008).
Lower total insulin content may be due to beta-cell exhaustion caused by over-stimulation and/or defective insulin production. To determine the mechanism through which CMPF diminishes insulin content, we measured insulin in the media following 24 hr treatment. […] Impaired insulin processing has previously been associated with elevated levels of the mitochondrial protein uncoupling protein 2 (UCP2) (Kashemsant and Chan, 2006). Excess substrate for the electron transport chain leads to the formation of ROS, which can induce UCP2 expression. To first determine if CMPF is metabolized by beta-cells, we measured changes in mitochondrial membrane potential (MMP) in mouse islets acutely treated with CMPF. […] This corresponded to a 2-fold increase in ROS in CMPF-treated islets over controls after 4 and 24 hrs of treatment (FIG. 17c). […] The increase in ROS production caused by CMPF-treatment was inhibited by co-treatment with the antioxidant N-Acetyl-Cysteine (NAC) (FIG. 17f). Importantly, co-treatment with NAC rescued insulin secretion and insulin content to near control levels in CMPF-treated islets (FIG. 17g,h). Therefore, oxidative stress caused by CMPF metabolism impaired GSIS and insulin processing, and is reversible through reducing ROS generation.
Given that CMPF causes hyperinsulinemia during the fed-state in vivo, and exaggerated secretion of insulin from islets under non-stimulatory conditions in vitro, we rationalized that there must be a defect in glucose-sensing and/or secretion of insulin that could not be solely explained by effects on insulin production. […] To confirm changes in mitochondrial function, 24 hr CMPF treated islets were analyzed by microarray. […] When organized based on biological process, the largest differentially expressed cluster encompassed genes involved in metabolism (38%) (FIG. 17c). […]

The target of the next data set is albumin (Homo sapiens, UniProt P02768). The following applies: cited from earlier work.
Sequence of albumin (P02768 25-609, species assumed): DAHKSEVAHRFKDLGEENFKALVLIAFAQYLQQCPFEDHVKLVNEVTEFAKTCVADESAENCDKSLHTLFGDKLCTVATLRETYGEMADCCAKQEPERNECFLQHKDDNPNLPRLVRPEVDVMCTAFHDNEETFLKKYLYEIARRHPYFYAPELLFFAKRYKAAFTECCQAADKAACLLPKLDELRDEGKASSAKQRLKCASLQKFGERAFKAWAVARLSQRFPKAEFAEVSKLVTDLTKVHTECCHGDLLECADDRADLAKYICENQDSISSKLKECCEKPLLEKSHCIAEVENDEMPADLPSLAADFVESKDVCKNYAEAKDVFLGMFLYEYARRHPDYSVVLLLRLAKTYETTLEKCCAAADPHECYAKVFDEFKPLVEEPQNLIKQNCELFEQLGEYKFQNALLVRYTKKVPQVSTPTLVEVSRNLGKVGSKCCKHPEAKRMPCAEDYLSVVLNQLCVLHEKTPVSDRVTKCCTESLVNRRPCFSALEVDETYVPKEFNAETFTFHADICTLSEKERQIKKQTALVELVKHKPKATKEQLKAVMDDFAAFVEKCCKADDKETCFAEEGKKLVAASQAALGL

As to `CCCc1oc(CCC(=O)O)c(C(=O)O)c1C` [CMPF, 3-carboxy-4-methyl-5-propyl-2-furanpropanoic acid], the KCl-stimulated insulin secretion result with MIN6 cells (4 hour pre-incubation) is given as “significantly impairs”. For the same molecule, in the data set on MIN6 cells (4 hour pre-treatment, vs 20 uM and vehicle), the “glucose-stimulated insulin secretion (GSIS)” value was “significantly impaired”. Moreover, the GSIS entry with primary human islets was “impairs GSIS”. Moreover, the total insulin content entry in the data set with human islets was “significantly reduced”. Also, the “plasma CMPF level after IP injection” value in data set [1] is “significantly elevated”. Moreover, in data set [2] (3 days IP), the “GSIS of isolated islets” value was “impaired GSIS”, the “insulin mRNA of isolated islets” value is on record as “decreased insulin mRNA”, the islet size entry was “no significant difference” and the “total insulin content of isolated islets” value was “decreased total insulin content”. Besides, in data set [2] (7 days IP), the “insulin secretion of isolated islets under high glucose” value was “significantly reduced insulin secretion” and the “insulin secretion of isolated islets under low glucose” value is “significantly increased insulin secretion”. Also, in the data set on mice, the “glucose appearance, basal” value was “significantly lower”; the “glycolytic rate, response to insulin (post clamp/basal)” value is given as “no difference”; the insulin appearance post-clamp result was “significantly reduced”. Besides, the glucose infusion rate entry with mice (N=4/group) is given as “significant reduction”. In the data set on dispersed mouse islets (24 hrs), the “MMP hyperpolarization under high glucose” value was “significantly reduced MMP hyperpolarization” and the “MMP hyperpolarization under sub-stimulatory glucose” value was “significantly greater hyperpolarization”. Also, the “mitochondrial membrane potential, acute addition” value with dispersed mouse islets (acute) was “transient membrane hyperpolarization”. Besides, the albumin binding result at albumin was “highly albumin-bound”.
